System: HT-29 cells
Test: crystal violet assay of adherent HT-29 cells after 5-FU treatment
Assay type: cell-based, human
Protocol: 5-Fluoruracil (5-FU) was from Sigma Aldrich, Necrostatin-1 was from Enzo Life Sciences. HAT-29 human CRC cell line was obtained from ATCC after cell line authentication utilizing short tandem repeat (STR) profiling. Within four weeks all cell lines were expanded and frozen in aliquots. Cell lines were reauthenticated and regularly tested for contamination as provided by the German Cancer Research Center (DKFZ) Core Facility (Heidelberg). Cells were cultured in RPMI-1640 medium (Biochrom) containing 10% FCS (PAA Laboratories) and 1% penicillin/streptomycin at 5% CO2 and 37° C.
HT-29 cells were incubated with 20 μM IDN-7314 and/or 20 μM Necrostatin (N) for 2 hours prior to treatment with 5-Fluoruracil (5-FU, 50 or 100 mg/ml). After 48 hours, the number of adherent cells was determined via crystal violet assay (RLU=relative light units). […] This effect could be abolished by the RIP1-specific kinase inhibitor, necrostatin, the reduced number of cells is due to induction of necrotic cell death.

| Compound | number of adherent cells (crystal violet assay, RLU) (20 μM IDN-7314 for 2 hours prior to 5-FU (50 or 100 mg/ml), read after 48 hours) | sensitization of colon cancer cells to chemotherapy-induced necrotic cell death (FIG. 1) (IDN-7314 with 5-FU) | effect of necrostatin on the reduction of adherent cells by IDN-7314 co-treatment (20 μM Necrostatin with 20 μM IDN-7314 for 2 hours prior to 5-FU (50 or 100 mg/ml), 48 hours) |
| --- | --- | --- | --- |
| C[C@H](NC(=O)C(=O)Nc1c(F)cccc1F)C(=O)N[C@@H](CC(=O)O)C(=O)COc1c(F)c(F)cc(F)c1F [IDN-7314] | significantly reduced the number of adherent cells | sensitizes colon cancer cells to chemotherapy-induced necrotic cell death |  |
| CN1C(=O)C(Cc2c[nH]c3ccccc23)NC1=S (stereo not drawn) [necrostatin, Necrostatin-1, reference compound] |  |  | abolished |
